From patent US10857136B2, “Compounds for use in the prevention and/or treatment of non-alcoholic fat liver disease and non-alcoholic steatohepatitis” (SJT MOLECULAR RESEARCH, SL, priority 2017, dated 2020)

Experiments:
Type in all cases: in vivo
[1] = tested on: DIO mice (C57Bl/6J male mice); assay: Insulin resistance (HOMA-IR), 36 days assay in DIO mice; conditions: 50 mg/kg orally twice daily for 36 days, days 1, 8, 15, 22, 29 and 36, vs saline control, similar to metformin 150 mg/kg
Method: To assess the performance of the compounds disclosed in decreasing insulin resistance, DIO mice (C57Bl/6J male mice) were treated with hydrochloride salts of compounds 4a, 5a; and with compound 7a during 36 days, versus a control treated with saline (0.9% NaCl) and versus DIO mice treated with metformin as a positive control.
For the assessment, 60 C57Bl/6 J male mice (16-week-old at delivery and 40 g of average weight), obtained from Charles River France put on high fat diet for 10 weeks. The animals were housed in ventilated and enriched housing cages (310×125×127 mm^3) throughout the experimental phase. Animals' cages litters were changed at least once a week. Mice were housed in groups of 10 mice on a normal 12 hours light cycle (at 08:00 pm lights were switched off), at 22±2° C. and 50±10% relative humidity. After reception, mice were maintained for three additional acclimation weeks. During the whole test (acclimation+treatment phase) a high fat diet (D12492 purchased from Research Diet Inc.; 60% fat) and tap water were provided ad libitum.
After the acclimation period, mice were fasted for 6 hours and blood glucose and plasma insulin were measured. Ten animals, those with lower blood glucose/plasma insulin, were discarded from the study. […]
Body weight were weekly measured as well as blood glucose and plasma insulin after a 6 hour-fasting.
Blood glucose was measured by sampling blood from the tip of the tail: a drop of blood is collected and placed on a glucometer strip (Accu-Check® glucometer, Roche, Switzerland). Plasma insulin was detected via ELISA (Elisa Kit, Eurobio, France) using 5 μl samples.
The Homeostatic model assessment-insulin resistance index (HOMA-IR), which is used to quantify insulin resistance, was calculated from fasting blood glucose, and plasma insulin values as follows: HOMA-IR=(mM glucose×μU/mL insulin)/22.5, being this constant a normalizing factor (Matthews et al., 1985, Diabetologia 28(7), 412-9).

[2] = tested on: DIO-NASH mice (C57Bl/6J male mice); assay: NAFLD activity score (NAS) of liver biopsies pre and post study in DIO-NASH mice; conditions: 50 mg/kg, p.o., b.i.d., 8 weeks, score range 0-8
Method: Non-alcoholic fat liver disease (NAFLD) activity score or NAS was evaluated by measurements of steatosis, lobular inflammation, ballooning degeneration and […] of the liver.
Total NAS score represents the sum of scores for steatosis, inflammation, and ballooning, and ranges from 0-8 as follows:
The % of steatosis degree refers to the amount of surface area of the sample involved by steatosis as evaluated on low to medium power examination.
The value given to measure inflammation corresponds to the number of inflammatory foci per field using a 200× magnification. A focus is defined as a cluster, not a row, of >3 inflammatory cells. Acidophil bodies are not included in the inflammatory assessment.
The ballooning degeneration value is measured by the amount of balloon cells, corresponding to degenerated hepatocytes with cleared cytoplasm, enlargement, swelling, rounding and reticulated cytoplasm. […]
Liver samples were fixed in formalin, paraffin embedded, and sections were stained with hematoxylin and eosin (H&E) and Sirius Red. Samples are scored for NAS and fibrosis using of the clinical criteria outlined by Kleiner et al. 2005. […]

[3] = tested on: DIO-NASH mice (C57Bl/6J male mice); assay: Liver inflammation: galectin-3 IHC staining in DIO-NASH mice; conditions: 50 mg/kg, p.o., b.i.d., 8 weeks
Method: To assess the effect of the compounds of the invention in inflammation of liver in the treatment of non-alcoholic fat liver disease, liver galactin-3 (inflammation marker) levels were determined after a 8 weeks study where DIO-NASH mice (C57Bl/6J male mice) were treated with a hydrochloride salt of compound 4a during 8 weeks (50 mg/kg, p.o., b.i.d.), versus a pathological control of DIO-NASH mice and a non-pathological control LEAN-CHOW mice, both treated with the vehicle (0.9% NaCl).
Galectin-3 was measured via galtactin-3 IHC staining: galectin-3 (Biolegend, Cat. #125402) IHC were performed using standard procedures. Briefly, after antigen retrieval and blocking of endogenous peroxidase activity, slides were incubated with primary antibody. The primary antibody was detected using a linker secondary antibody followed by amplification using a polymeric HRP-linker antibody conjugate. Next, the primary antibody was visualized with DAB as chromogen. Finally, sections were counterstained in hematoxylin and cover-slipped.

[4] = tested on: DIO-NASH mice (C57Bl/6J male mice); assay: Absolute and relative body weight, 8 weeks assay in DIO-NASH mice; conditions: 50 mg/kg, p.o., b.i.d., statistics at day 54, vs DIO-NASH vehicle
Method: The assay was carried out to evaluate the effect of the compounds of the invention on body weight of animals with non-alcoholic fat liver disease (DIO-NASH mice). For this assay, the effect of compound 4a in absolute and relative body weight was evaluated. DIO-NASH mice (C57Bl/6J male mice) were treated with a hydrochloride salt of compound 4a during 8 weeks (50 mg/kg, p.o., b.i.d.), versus a pathological control of DIO-NASH mice and a non-pathological control LEAN-CHOW mice, both treated with the vehicle (0.9% NaCl). The DIO-NASH mice group were put on high fat diet (40% AMLN diet, D09100301 Research Diets, USA) and a control group (LEAN-CHOW) was put on a regular chow diet (Altromin 1324, Brogaarden, Denmark) for 35 weeks prior to the study.
Body weight of for each of the groups taken on a daily basis. The animals were kept under the same conditions were used as in example 2.2.

Which “insulin resistance (HOMA-IR)” value [1] does the source give for `COc1ccc(-c2nc(C(=O)NCCN)cc3c2[nH]c2ccccc23)cc1` [Compound 4a, N(-ethylamine)-1-benzosubstituted-β-carboline-3-carboxamide] here?
Its value is “lower insulin resistance compared to the control animals”.

And the “NAS score change of the liver biopsy pre and post study” value [2]?
Its value is “generally reduced the NAS score”.

What about the “anti-galectin-3 staining, representative images of liver samples” value ([3]; end of study) of the same compound?
The value was “visible change in this inflammation marker”.

And the “total liver galectin-3 content determined by morphometry” value ([3]; vs DIO-NASH vehicle)?
Its value is “reduced total galectin-3 content”.

And the absolute body weight [4]?
Its absolute body weight is “reduced body weight”.

And the “relative body weight versus the body weight at the start of the treatment (day 0 is 100%)” value [4]?
The value was “reduced relative body weight significantly”.
